US20140349970A1 (ABBVIE INC., priority 2009, published 2014)
Like-named read-outs stand apart in the source and are kept apart here.

Molecular target: T1, Syk catalytic domain (aa 356-635 with a C-terminal His-tag) (Homo sapiens, UniProt P43405)
T1 construct: His-tag (C); made in house
Test: In vitro Syk kinase activity measured by trFRET, Syk catalytic domain
Type: biochemical
Experimental: In Vitro Syk Kinase Activity Measured by Time-Resolved Fluorescence Resonance Energy Transfer (trFRET)
0.14 nM purified Syk catalytic domain (aa 356-635 with a C-terminal His-tag purified in-house by immobilized metal ion affinity chromatography) was mixed with 0.2 μM peptide substrate (biotin-TYR1, Sequence: Biotin-(Ahx)-GAEEEIYAAFFA-COOH) at varying inhibitor concentrations in reaction buffer: 50 mM MOPSO pH 6.5, 10 mM MgCl2, 2 mM MnCl2, 2.5 mM DTT, 0.01% BSA, 0.1 mM Na3VO4 and 0.001 mM ATP. After about 60 min incubation at rt, the reaction was quenched by addition of EDTA (final concentration: 100 mM) and developed by addition of revelation reagents (final approximate concentrations: 30 mM HEPES pH 7.0, 0.06% BSA, 0.006% Tween-20, 0.24 M KF, 80 ng/mL PT66K (europium labeled anti-phosphotyrosine antibody cat #61T66KLB Cisbio, Bedford, Mass.) and 0.6 μg/mL SAXL (Phycolink streptavidin-allophycocyanin acceptor, cat #PJ255, Prozyme, San Leandro, Calif.). The developed reaction was incubated in the dark either at about 4° C. for about 14 h or for about 60 min at rt, then read via a time-resolved fluorescence detector (Rubystar, BMG) using a 337 nm laser for excitation and monitoring emission wavelengths at 665 nm. Within the linear range of the assay, the observed signal at 665 nm was directly related to phosphorylated product and can be used to calculate the IC50 values.
MOPSO buffer contains: 50 mM MOPSO pH 6.5, 10 mM MgCl2, 2 mM MnCl2, 2.5 mM DTT, 0.01% BSA, and 0.1 mM Na3VO4 HEPES buffer contains: 50 mM HEPES pH 7.1, 2.5 mM DTT, 10 mM MgCl2, 2 mM MnCl2, 0.01% BSA, and 0.1 mM Na3VO4 MOPS buffer contains: 20 mM MOPS pH 7.2, 10 mM MgCl2, 5 mM EGTA, 5 mM Beta-phosphoglycerol, 1 mM Na3VO4, 0.01% Triton-X-100 and 1 mM DTT
Biotin-TYR1-peptide sequence: Biotin-(Ahx)-GAEEEIYAAFFA-COOH Biotin-TYR2-peptide sequence: Biotin-(Ahx)-AEEEYFFLFA-amide KinEASE 51 peptides were purchased from Cisbio (cat #62ST0PEB, Bedford, Mass.)
PT66K was purchased from Cisbio (cat #61T66KLB, Bedford, Mass.) EuSTK was purchased from Cisbio (cat #62ST0PEB, Bedford, Mass.) SAXL was purchased from Prozyme (cat #PJ25S, San Leandro, Calif.) Human T-Blasts IL-2 pSTAT5 Cellular Assay

[1] = Syk catalytic domain (aa 356-635), trFRET, 0.001 mM ATP

Structure (SMILES)	IC50 [1]	IC50
CC(=O)N[C@H]1CC[C@@H](c2ncc3cnc4[nH]c(-c5cccc(S(C)(=O)=O)c5)cc4n23)C1 [J.2.1.2]	0.1 to 1 µM	
CN(C)CC(=O)NCc1cccc(-c2cc3c(ncc4cnn(C)c43)[nH]2)c1 [J.1.1.1]	0.1 to 1 µM	
Cn1cc(-c2cc3c(ncc4cnn(C)c43)[nH]2)c2cnccc21 [N.1.100]	0.1 to 1 µM	
CCc1c[nH]c2ncc3c(-c4ccsc4)nn(C)c3c12 [N.1.73]	0.1 to 1 µM	
Cc1ccc(-c2cc3c(ncc4cnn(C)c43)[nH]2)c(C)c1 [N.1.47]	1 to 10 µM	
COc1cccc(-c2nc(C3CCCCC3)n3c2cnc2[nH]ccc23)c1 [AC.3.1]		1 to 10 µM
CCc1c[nH]c2ncc3c(-c4cc(OC)c(OC)c(OC)c4)nn(C)c3c12 [N.1.77]	1 to 10 µM	
Cn1cc(-c2cc3c(ncc4cnn(C)c43)[nH]2)c2cc(C(=O)NCCN3CCOCC3)ccc21 [J.1.8.1]	< 0.1 µM	
CCc1c[nH]c2ncc3c(-c4ccc(OC)cc4)nn(C)c3c12 [N.1.74]	1 to 10 µM	
CCc1c(-c2cnn(C)c2C)[nH]c2ncc3cnn(C)c3c12 [N.1.38]	1 to 10 µM	
Cc1ncc2cnc3[nH]c(-c4cnn(C)c4)cc3n12 [M.2.1]	0.1 to 1 µM	
CCc1c[nH]c2ncc3c(-c4ccc(OC)c(F)c4)nn(C)c3c12 [N.1.67]	0.1 to 1 µM	
Cn1ncc2cnc3[nH]c(-c4cnc5n4CCC5)cc3c21 [N.1.27]	1 to 10 µM	
CS(=O)(=O)c1cccc(-c2cc3c(ncc4cnc(CCCNC(=O)C(F)(F)F)n43)[nH]2)c1 [M.1.4]	0.1 to 1 µM	
COc1ccc2c(c1)c(-c1cc3c4c(cnc3n1COP(=O)(O)O)cnn4C)cn2C [Example 9, (7-(5-Methoxy-1-methyl-1H-indol-3-yl)-1-methylpyrazolo[3,4-d]pyrrolo[2,3-b]pyridin-6(1H)-yl)methyl dihydrogen phosphate]	1 to 10 µM	
Cn1ccc2cc(-c3cc4c(ncc5cnn(C)c54)[nH]3)ccc21 [N.1.46]	0.1 to 1 µM	
Cn1ncc2cnc3[nH]c(-c4cccn4CC(=O)O)cc3c21 [AN.1.2, 2-(2-(1-methyl-1,6-dihydropyrazolo[3,4-d]pyrrolo[2,3-b]pyridin-7-yl)-1H-pyrrol-1-yl)acetic acid]		> 10 µM
COc1ccc2c(c1)c(-c1cc3c(ncc4cnn(C)c43)[nH]1)cn2C(C)C [N.1.81]	0.1 to 1 µM	
Cc1cc(-c2cc3c(ncc4cnn(C)c43)[nH]2)ccc1N1CCN(C)CC1 [N.1.115]	< 0.1 µM	

The next lines start with the values.

IC50 [1]	IC50	Structure (SMILES)
< 0.1 µM		Cc1nc(-c2ccc(C(C)(C)O)cc2)c2cnc3[nH]cc(Br)c3n12 [AY.1, 2-(4-(8-Bromo-1-methyl-6H-imidazo[1,5-a]pyrrolo[2,3-e]pyrazin-3-yl)phenyl)propan-2-ol]
	0.1 to 1 µM	CC(C)S(=O)(=O)c1ccc(-c2nc(C3CCCCC3)n3c2cnc2[nH]ccc23)cc1 [AC.3.30]
	0.1 to 1 µM	Cc1nc(-c2ccc(CC(C)(C)O)cc2)c2cnc3[nH]ccc3n12 [AC.1.35]
	0.1 to 1 µM	CC1CN(Cc2nc(-c3ccc(C(C)(C)O)cc3)c3cnc4[nH]ccc4n23)CCN1 (stereo not shown) [P.3.1.13]
	< 0.1 µM	COc1ccc(-c2nn(C)c3c2cnc2[nH]ccc23)cc1 [AU.1.1, 3-(4-methoxyphenyl)-1-methyl-1,6-dihydropyrazolo[3,4-d]pyrrolo[2,3-b]pyridine]
	1 to 10 µM	COc1ncc(-c2nc(C)n3c2cnc2[nH]ccc23)cn1 [AC.1.23]
	< 0.1 µM	COc1ccc(-c2ncn3c2cnc2[nH]ccc23)cc1OC [AC.4.8]
	0.1 to 1 µM	Cc1nc(-c2ccc(S(=O)(=O)C(C)C)cc2)c2cnc3[nH]ccc3n12 [AC.1.11]
0.1 to 1 µM		CC(C)(O)c1ccc(-c2nc(-c3ccccc3CN)n3c2cnc2[nH]ccc23)cc1 [Example 7, 2-(4-(1-(2-(Aminomethyl)phenyl)-6H-imidazo[1,5-a]pyrrolo[2,3-e]pyrazin-3-yl)phenyl)propan-2-ol]
0.1 to 1 µM		COc1ccc(-c2nc(CO)n3c2cnc2[nH]ccc23)cc1 [N.1.113]
< 0.1 µM		CC(C)(O)c1ccc(-c2nc(-c3ccccc3CO)n3c2cnc2[nH]ccc23)cc1 [N.1.109]
	1 to 10 µM	COc1ccc(-c2nc(C)n3c2cnc2[nH]ccc23)c(F)c1 [AC.1.18]
